From US11807649B2, “Fused tetracyclic quinazoline derivatives as inhibitors of ErbB2” (EnLiven Therapeutics, Inc., priority 2021, dated 2023)

Test system: Ba/F3 ERBB2 YVMA
Experiment: Cell viability assay (CellTiter Glo), Ba/F3 cells engineered to express ERBB2 YVMA
Type: cell-based
Conditions: Mus musculus, BaF3, 72 h, Ba/F3 cells expressing human ERBB2 YVMA mutant; 72 hours; cell viability, CellTiter Glo; read-out: Ba/F3 ERBB2 YVMA, IC50
Description: Cells were treated with compounds, and cell viability was measured as a metric of kinase inhibition.
BT-474, A431, MDA-MB-175VII, NCI-H1781, MCF7, and Ba/F3 cell lines were tested. The Ba/F3 cell line is IL-3-dependent mouse cell line derived from the C3H mouse strain. Ba/F3 cell lines were engineered to express human ERBB2 or EGFR kinases, rendering the cells IL-3 independent. The lines were generated via retroviral transduction utilizing a Moloney murine leukemia virus (MMLV) promoter, and constructs are stably integrated into the cell genome. The sequences of the ERBB2 and EGFR genes used were NCBI Reference Sequences NM 004448.3 and NM 005228.3, respectively.
BT-474, A431, MDA-MB-175VII, NCI-H1781 and MCF7 cells were grown in the appropriate growth medium as described in Table B2 below, and harvested at 50-80% confluence. BT-474, A431, MDA-MB-175VII, NCI-H1781 and MCF7 cells were counted and seeded at 2,000 or 1,500 cells per well in 384-well tissue culture plates (see Table B2). Similarly, Ba/F3 cell lines engineered to express EGFR, ERBB2, or ERBB2 mutants were grown, harvested, counted and seeded at 3000 cells per well in 96-well plates. A subset of wells contained media only (low control, “LC”).
Table B1 provides the growth media and number of cells seeded per well for the each cell line.
Compounds were dissolved in DMSO and serially diluted. Serially-diluted compound or a DMSO only control (high control, “HC”) was added to the plated cells in each well. Compounds were tested at concentrations of about 10 μM to 0.51 nM, using three-fold dilutions. The final proportion of DMSO never exceeded 0.1%.
Plates were placed in a 37° C., 5% CO2 incubator for 72 hours. Plates were then removed from the incubator and equilibrated for 15 minutes at room temperature. […] of CellTiter Glo reagent (Promega) was added to measure the relative level of metabolically active cells by quantifying intracellular ATP concentrations. Plates were incubated for 30 minutes at room temperature, and luminescence was measured. Percent viability was normalized to a vehicle control only using the following formula: % viability=100×(Lumsample−LumLC)/(LumHC−LumLC). Graphical curves were fitted using a nonlinear regression model with a sigmoidal dose response.

CN(C)C/C=C/C(=O)N1CCN2C[C@H]1COc1cc3ncnc(Nc4cc(Cl)c(Oc5ccn6ncnc6c5)cc4F)c3nc12 [Compound 43, (E)-1-((10S)-4-((4-([1,2,4]triazolo[1,5-a]pyridin-7-yloxy)-5-chloro-2-fluorophenyl)amino)-7,8,10,11-tetrahydro-9H-6,10-methanopyrimido[4′,5′:5,6]pyrido[3,2-b][1,4,7]oxadiazonin-9-yl)-4-(dimethylamino)but-2-en-1-one]
IC50: 4.65 nM

Cc1cc(Nc2ncnc3cc4c(nc23)N2CCN(C(=O)/C=C/CN(C)C)[C@H](CO4)C2)c(F)cc1Oc1cncc(F)c1 [Compound 44]
IC50: 9.18 nM

CN(C)C/C=C/C(=O)N1CCN2C[C@H]1COc1cc3ncnc(Nc4ccc(Oc5ccn6ncnc6c5)c(Cl)c4)c3nc12 [Compound 32, (E)-1-((10S)-4-((4-([1,2,4]triazolo[1,5-a]pyridin-7-yloxy)-3-chlorophenyl)amino)-7,8,10,11-tetrahydro-9H-6,10-methanopyrimido[4′,5′:5,6]pyrido[3,2-b][1,4,7]oxadiazonin-9-yl)-4-(dimethylamino)but-2-en-1-one]
IC50: 4.54 nM

Cc1cc(Nc2ncnc3cc4c(nc23)N2CCN(C(=O)/C=C/CN(C)C)[C@H](CO4)C2)ccc1Oc1cncc(F)c1 [Compound 51]
IC50: 3.37 nM

Cc1cc(Nc2ncnc3cc4c(nc23)N2CCN(C(=O)/C=C/CN(C)C)CC(CO4)C2)ccc1Oc1ccn2ncnc2c1 (centres unmarked) [Compound 57, (E)-1-(4-((4-([1,2,4]triazolo[1,5-a]pyridin-7-yloxy)-3-methylphenyl)amino)-7,8,11,12-tetrahydro-6,11-methanopyrimido[4′,5′:5,6]pyrido[3,2-b][1,4,7]oxadiazecin-9(10H)-yl)-4-(dimethylamino)but-2-en-1-one]
IC50: 173 nM

Cc1cc(Nc2ncnc3cc4c(nc23)N2CCN(C(=O)/C=C/CN(C)C)[C@H](CO4)C2)ccc1Oc1cccnc1 [Compound 25, (E)-4-(dimethylamino)-1-((10S)-4-((3-methyl-4-(pyridin-3-yloxy)phenyl)amino)-7,8,10,11-tetrahydro-9H-6,10-methanopyrimido[4′,5′:5,6]pyrido[3,2-b][1,4,7]oxadiazonin-9-yl)but-2-en-1-one]
IC50: 2.02 nM

Cc1cc(Nc2ncnc3cc4c(nc23)N2CCN(C(=O)/C=C/CN(C)C)[C@H](CO4)C2)ccc1Oc1ccn2ccnc2c1 [Compound 34, (E)-4-(dimethylamino)-1-((10S)-4-((4-(imidazo[1,2-a]pyridin-7-yloxy)-3-methylphenyl)amino)-7,8,10,11-tetrahydro-9H-6,10-methanopyrimido[4′,5′:5,6]pyrido[3,2-b][1,4,7]oxadiazonin-9-yl)but-2-en-1-one]
IC50: 7.18 nM

Cc1cc(Nc2ncnc3cc4c(nc23)N2CCN(C(=O)/C=C/[C@H]3CCCN3C)[C@H](CO4)C2)c(F)cc1Oc1ccn2ncnc2c1 [Compound 41, (E)-1-((10S)-4-((4-([1,2,4]triazolo[1,5-a]pyridin-7-yloxy)-2-fluoro-5-methylphenyl)amino)-7,8,10,11-tetrahydro-9H-6,10-methanopyrimido[4′,5′:5,6]pyrido[3,2-b][1,4,7]oxadiazonin-9-yl)-34-((R)-1-methylpyrrolidin-2-yl)prop-2-en-1-one]
IC50: 8.67 nM

Cc1cc(Nc2ncnc3cc4c(nc23)N2CCN(C(=O)/C=C/[C@H](C)N(C)C)[C@H](CO4)C2)c(F)cc1Oc1ccn2ncnc2c1 [Compound 47, (4S,E)-1-((10S)-4-((4-([1,2,4]triazolo[1,5-a]pyridin-7-yloxy)-2-fluoro-5-methylphenyl)amino)-7,8,10,11-tetrahydro-9H-6,10-methanopyrimido[4′,5′:5,6]pyrido[3,2-b][1,4,7]oxadiazonin-9-yl)-4-(dimethylamino)pent-2-en-1-one]
IC50: 13 nM

Cc1cc(Nc2ncnc3cc4c(nc23)N2CCN(C(=O)/C=C/CN(C)C)[C@@H](CO4)C2)ccc1Oc1ccn2ncnc2c1 [Compound 15, (E)-1-((10R)-4-((4-([1,2,4]triazolo[1,5-a]pyridin-7-yloxy)-3-methylphenyl)amino)-7,8,10,11-tetrahydro-9H-6,10-methanopyrimido[4′,5′:5,6]pyrido[3,2-b][1,4,7]oxadiazonin-9-yl)-4-(dimethylamino)but-2-en-1-one]
IC50: 82.3 nM

Cc1cc(Nc2ncnc3cc4c(nc23)N2CCN(C(=O)/C=C/CN(C)C)C(CCO4)C2)ccc1Oc1ccn2ncnc2c1 (centres unmarked) [Compound 52, (E)-1-(4-((4-([1,2,4]triazolo[1,5-a]pyridin-7-yloxy)-3-methylphenyl)amino)-7,8,11,12-tetrahydro-6,10-methanopyrimido[4′,5′:5,6]pyrido[3,2-b][1,4,7]oxadiazecin-9(10H)-yl)-4-(dimethylamino)but-2-en-1-one]
IC50: 109 nM

Cc1cc(Nc2ncnc3cc4c(nc23)N2CCN(C(=O)/C=C/[C@@H](C)N(C)C)[C@H](CO4)C2)ccc1Oc1ccn2ncnc2c1 [Compound 29, (4R,E)-1-((10S)-4-((4-([1,2,4]triazolo[1,5-a]pyridin-7-yloxy)-3-methylphenyl)amino)-7,8,10,11-tetrahydro-9H-6,10-methanopyrimido[4′,5′:5,6]pyrido[3,2-b][1,4,7]oxadiazonin-9-yl)-4-(dimethylamino)pent-2-en-1-one]
IC50: 19.6 nM

Cc1cc(Nc2ncnc3cc4c(nc23)N2CCN(C(=O)/C=C/[C@H]3CCCN3C)[C@H](CO4)C2)ccc1Oc1ccn2ncnc2c1 [Compound 27, (E)-1-((10S)-4-((4-([1,2,4]triazolo[1,5-a]pyridin-7-yloxy)-3-methylphenyl)amino)-7,8,10,11-tetrahydro-9H-6,10-methanopyrimido[4′,5′:5,6]pyrido[3,2-b][1,4,7]oxadiazonin-9-yl)-3-((R)-1-methylpyrrolidin-2-yl)prop-2-en-1-one]
IC50: 10.6 nM

Cc1cc(Nc2ncnc3ccc(NC4=NC(C)(C)CO4)cc23)ccc1Oc1ccn2ncnc2c1 [Tucatinib, tucatinib, reference compound]
IC50: 105 nM

CC#CC(=O)N1CCN2C[C@@H]1COc1cc3ncnc(Nc4ccc(Oc5ccn6ncnc6c5)c(C)c4)c3cc12 [Compound 17, 1-((10R)-4-((4-([1,2,4]triazolo[1,5-a]pyridin-7-yloxy)-3-methylphenyl)amino)-7,8,10,11-tetrahydro-9H-6,10-methano[1,4,7]oxadiazonino[3,2-g]quinazolin-9-yl)but-2-yn-1-one]
IC50: > 500 nM

Cc1cc(Nc2ncnc3cc4c(c(F)c23)N2CCN(C(=O)/C=C/CN(C)C)[C@H](CO4)C2)ccc1Oc1ccn2ncnc2c1 [Compound 40, (E)-1-((10S)-4-((4-([1,2,4]triazolo[1,5-a]pyridin-7-yloxy)-3-methylphenyl)amino)-5-fluoro-7,8,10,11-tetrahydro-9H-6,10-methano[1,4,7]oxadiazonino[3,2-g]quinazolin-9-yl)-4-(dimethylamino)but-2-en-1-one]
IC50: 29.4 nM

Cc1cc(Nc2ncnc3cc4c(nc23)N2CCN(C(=O)/C=C/[C@@H]3CCCN3C)[C@H](CO4)C2)ccc1Oc1ccn2ncnc2c1 [Compound 28, (E)-1-((10S)-4-((4-([1,2,4]triazolo[1,5-a]pyridin-7-yloxy)-3-methylphenyl)amino)-7,8,10,11-tetrahydro-9H-6,10-methanopyrimido[4′,5′:5,6]pyrido[3,2-b][1,4,7]oxadiazonin-9-yl)-3-((S)-1-methylpyrrolidin-2-yl)prop-2-en-1-one]
IC50: 6.84 nM

Cc1cc(Nc2ncnc3cc4c(nc23)N2CCN(C(=O)/C=C/C3(F)CN(C)C3)[C@H](CO4)C2)ccc1Oc1ccn2ncnc2c1 [Compound 53, (E)-1-((10S)-4-((4-([1,2,4]triazolo[1,5-a]pyridin-7-yloxy)-3-methylphenyl)amino)-7,8,10,11-tetrahydro-9H-6,10-methanopyrimido[4′,5′:5,6]pyrido[3,2-b][1,4,7]oxadiazonin-9-yl)-3-(3-fluoro-1-methylazetidin-3-yl)prop-2-en-1-one]
IC50: 117 nM

CNC/C=C/C(=O)N1CCN2C[C@H]1COc1cc3ncnc(Nc4cc(C)c(Oc5ccn6ncnc6c5)cc4F)c3nc12 [Compound 49, (E)-1-((10S)-4-((4-([1,2,4]triazolo[1,5-a]pyridin-7-yloxy)-2-fluoro-5-methylphenyl)amino)-7,8,10,11-tetrahydro-9H-6,10-methanopyrimido[4′,5′:5,6]pyrido[3,2-b][1,4,7]oxadiazonin-9-yl)-4-(methylamino)but-2-en-1-one]
IC50: 37.6 nM

CC#CC(=O)N1CCN2C[C@H]1COc1cc3ncnc(Nc4ccc(Oc5ccc6c(c5)ncn6C)c(C)c4)c3nc12 [Compound 16, 1-((10S)-4-((3-methyl-4-((1-methyl-1H-benzo[d]imidazol-5-yl)oxy)phenyl)amino)-7,8,10,11-tetrahydro-9H-6,10-methanopyrimido[4′,5′:5,6]pyrido[3,2-b][1,4,7]oxadiazonin-9-yl)but-2-yn-1-one]
IC50: 14 nM
